Tested on: Staphyloccoccus aureus, strain ATCC23273
Assay: Colony forming units in agar BHI of samples from the bactericidal/bacteriostatic test
Type: cell-based, Staphylococcus aureus
Design: key to Colony forming unites (CFU) in agar BHI: i = uncountable
Description: The bactericidal/bacteriostatic effect of the propolis nanoparticles, of nanoencapsulated arithromycin in propolis extract and of pure arithromycin was determined in vitro against samples of Staphylocossus aureus (strain ATCC23273) cultivated in Mueller Hinton culture broth, according to Table 3. Since azithromycyn is a bacteriostatic antibiotic, the samples of the different dilutions were used to determine the core of colony forming units (UFC) in agar BHI (brain-heart-infusion), and thereby determine the bactericidal/bacteriostatic effect shown in Table 4.

Structure (SMILES): CC[C@H]1OC(=O)[C@H](C)[C@@H](O[C@H]2C[C@@](C)(OC)[C@@H](O)[C@H](C)O2)[C@H](C)[C@@H](O[C@@H]2O[C@H](C)C[C@H](N(C)C)[C@H]2O)[C@](C)(O)C[C@@H](C)CN(C)[C@H](C)[C@@H](O)[C@]1(C)O [A, azithromycin]
- concentration with bactericidal effect on Staphylococcus aureus (from broth test and CFU count): ≥ 128 µg/mL
- Colony forming unites (CFU) in agar BHI (origin tube 4): i
- Colony forming unites (CFU) in agar BHI (origin tube 8): 30 UFC
- Colony forming unites (CFU) in agar BHI (origin tube 16): 3 UFC
- Colony forming unites (CFU) in agar BHI (origin tube 32): 1 UFC
- Colony forming unites (CFU) in agar BHI (origin tube 64): 1 UFC
- Colony forming unites (CFU) in agar BHI (origin tube 128): 0 UFC
- Colony forming unites (CFU) in agar BHI (origin tube 512): 0 UFC
- Colony forming unites (CFU) in agar BHI (origin tube 526): 0 UFC
